Measurements as given in US20110144022A1, “Anti-Angiogenic Peptide” (ISTITUTO NAZIONALE PER LA RICERCA SUL CANCRO, priority 2004, published 2011).

How the values were obtained:
polymorphonucleate (PMN) = experiment: Neutrophil (PMN) chemotaxis assay with IL-8 as chemoattractant; format: cell-based; settings: CXCR1 and CXCR2-agonist and IL8 as chemoattractants
Experimental: The assay was conducted in 48 wells chambers (Costar Nucleopore, Milan, Italy) according to Falk (4). The lower compartment of each chamber was filled with 27 μL of chemoattractant (IL-8, 50 ng/ml) in RPMI 0.1% BSA (SFM). Serum-free medium (SFM) was used for spontaneous migration without stimulus. The upper compartment was filled with 50 μL of polymorphonucleate (PMN) suspension in SFM (3×10^6 cells/ml); each experimental point was performed in sextuplicate. Chambers were incubated at 37° C. in 5% CO2 in humidified atmosphere for 45 minutes. Filters were removed and the cells fixed in 100% ethanol and stained with toluidine blue. The migrated cells were quantified by scanning of the filter surface and by densitometry of blue staining by NIH Imaging Analysis Software.
FIG. 3: PMN chemotaxis. Densitometry of migrated cells. IL-8 represents the stimulus in each sample, to which either AST or relevant peptides are added.

KS-imm cells = experiment: Xenotransplant of Kaposi sarcoma (KS-imm) tumor cells in nude mice; format: in vivo, CD1 nude mice; settings: single administration three days before cell injection
Experimental: CD1 nude mice were injected in the flank with 5 million KS-imm cells and split in four groups: one was injected peri-tumorally with 2.5 μg AST (Calbiochem, La Jolla, Calif.) in 100 μl PBS-BSA, a control group was injected with vehicle alone, a third group with 2.5 mg of peptide SEQ ID NO:1 or a control peptide. Mice were sacrificed at day 31.

angiogenesis = experiment: Matrigel sponge in vivo angiogenesis assay; parameters: species or system C57B1 mice; settings: for effect of anti IL-12 antibody on the anti-angiogenic activity: neutralizing anti mouse IL-12 antibody added to the matrigel mixture
Experimental: the assay was performed in C57B1 mice as described (3).
To verify whether IL-12 was a mediator of AST function, a neutralizing anti mouse IL-12 antibody (Peproteck Inc. London) and respectively an irrelevant anti phage 13 antibody (5 prime, 3 prime Inc. Boulder, Co. 150 ng/ml) were added to the mixture.
After animal sacrifice, pellets were fixed in 4% PAF and paraffin embedded; […] sections were stained with hematoxylin-eosin standard procedure.
FIG. 1-b: matrigel in vivo angiogenesis assay with AST. Columns show means and standard error of groups comprising six animals each. KS-conditioned medium (KSCM) is the stimulus (control).
FIG. 1-c: matrigel in vivo angiogenesis assay with peptides.
A combination of peptides and anti IL-12 Ab was added to the samples containing KSCM as indicated.
FIG. 2, a-h: standard ematoxylin-eosin staining of the matrigel pellets relative to experiments in FIG. 1-c.

Row | Substance | activity in neutrophil chemotaxis assay (inhibition of migration) (polymorphonucleate (PMN)) | tumor growth (KS-imm cells) | anti-angiogenic activity in matrigel sponges (hemoglobin quantification) (angiogenesis; KS-conditioned medium (KSCM) as stimulus, compared with angiostatin) | angiogenesis inhibition by hematoxylin-eosin stain of matrigel pellets (angiogenesis; histology of matrigel sponges) | local cellular infiltration in matrigel pellets (angiogenesis; histology of matrigel sponges) | effect of anti IL-12 antibody on the anti-angiogenic activity (angiogenesis)
1 | HNRTPENFPCKNL (listed as Homo sapiens) [peptide SEQ ID NO:1, 13mer from Kringle 3 of angiostatin, starting from position 307 of human plasminogen] | significantly higher compared to other angiostatin peptides | able to diminish tumor growth with respect to angiostatin | more active than angiostatin | potent angiogensis inhibition | drastically reduced | inhibited by and antibody anti IL-12
2 | angiostatin | – | – | – | – | – | inhibited by and antibody anti IL-12
